The numbers were not newly measured in patent publication US9149490B2, “Acne treatment composition and methods for using” (Skinvisible Pharmaceuticals, Inc., priority 2006, dated 2015), which cites them from elsewhere.

For the data set the following is noted: in vivo.

With “Poly(vinylpyrrolidone/1-eicosene) [PVPE]”, the dermal toxicity entry was “no demonstrable dermal toxicity”.
Consider “Poly(vinylpyrrolidone/1-hexadecene) [PVPH]”, for which the dermal toxicity entry is reported as “no demonstrable dermal toxicity”.
